Test results taken from US20130209551A1, “PENTAPEPTIDE DERIVATIVES FOR PROMOTING HAIR GROWTH” (priority 2010, published 2013).
*: point of attachment. Biotin = O=C1N[C@H]2[C@H](CS[C@H]2CCCCC(=O)*)N1

Tested on: hair bulb keratinocytes
Experiment: Detection of the hair bulb keratinocyte proliferation (test of Biol. Pharm. Bull., 28(3), 485-489, (2005))
Assay type: cell-based
Conditions: relative to unsubstituted pentapeptide Gly-Pro-Ile-Gly-Ser
Description: In the test as described in Biol. Pharm.

For “5-[(3aS,4S,6aR)-2-oxo-hexahydro-1H-thieno[3,4-d]imidazol-4-yl]pentanoyl-Gly-Pro-Ile-Gly-Ser-OH (Biotin-GPIGS-OH; SMILES CC[C@H](C)[C@H](NC(=O)[C@@H]1CCCN1C(=O)CNC(=O)CCCC[C@@H]1SC[C@@H]2NC(=O)N[C@@H]21)C(=O)NCC(=O)N[C@@H](CO)C(=O)O) [No. 9]”, the “keratinocyte growth test result, value superior in comparison with the corresponding value for Gly-Pro-Ile-Gly-Ser” value was 53%.
